Measured values taken from PubChem BioAssay (NCI).
Values joined by “and” are separate entries in the source; they are usually repeats but may differ in a detail not shown here. Equal entries are not always repeated.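 96-well plates; 48 h exposure; 5 concentrations. Endpoints by linear interpolation between flanking doses. Not reached: highest tested concentration assigned. GI50: concentration for 50% inhibition of growth. TGI is the concentration that stops growth completely.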

How the values were obtained:
Experiment in all cases: inhibition of tumour cell growth, NCI panel, 48 h
HT29 colon = tested on: HT29 colon
HCC-2998 colon = tested on: HCC-2998 colon
786-0 renal = tested on: 786-0 renal
RXF 393 renal = tested on: RXF 393 renal
HCT-116 colon = tested on: HCT-116 colon
U251 CNS = tested on: U251 CNS
SF-295 CNS = tested on: SF-295 CNS
MDA-MB-231 breast = tested on: MDA-MB-231 breast
OVCAR-8 ovarian = tested on: OVCAR-8 ovarian
NCI-H522 lung = tested on: NCI-H522 lung

Compound	GI50 (HT29 colon)	TGI (HT29 colon) [µM]	GI50 (HCC-2998 colon)	TGI (HCC-2998 colon)	GI50 (786-0 renal)	TGI (786-0 renal) [µM]	GI50 (RXF 393 renal) [µM]	TGI (RXF 393 renal) [µM]	GI50 (HCT-116 colon)	TGI (HCT-116 colon)	GI50 (U251 CNS)	TGI (U251 CNS)	GI50 (SF-295 CNS) [µM]	TGI (SF-295 CNS) [µM]	GI50 (MDA-MB-231 breast)	TGI (MDA-MB-231 breast) [µM]	GI50 (OVCAR-8 ovarian)	TGI (OVCAR-8 ovarian) [µM]	TGI (NCI-H522 lung)	GI50 (NCI-H522 lung)
COc1ccc(C(=O)C(CN(C)C)c2ccccc2)cc1 (centres undefined)	3.8 µM	21.4	2.28 µM	3.94 µM	1.62 µM	3.01	1.32	3.1	0.707 µM	1.95 µM	4.39 µM	14.8 µM	12.6	32.4	5.41 µM	17.4	3.46 µM	12.5		
COC(=O)C1=C(c2cc(OC)c(OC)c(OC)c2)OC(c2cc(OC)c(OC)c(OC)c2)C1 (centres undefined)		58.5		41.4 µM		70.8		75.2		32.9 µM		44.2 µM		51.1				> 100		
COc1cccc(C2N3CCCCC3[C@@H]3c4[nH]c5ccccc5c4CCN23)c1OC (some centres undefined)		25.5				32.4		27.9		31.1 µM		30.9 µM		31.6				30.8		
C/C(CC(=O)Nc1cc(Cl)c(Cl)cc1Cl)=N\NS(=O)(=O)c1ccc(C)cc1		> 100		86.5 µM		> 100		82.7		59.6 µM		> 100 µM		> 100				> 100	41.8 µM	
CCOC(=O)CCC(NC(=O)c1ccc(Nc2nc3cc(N)cc(N)c3nc2-c2ccccc2)cc1)C(=O)OCC (centres undefined)	83.6 µM	> 100			> 42.3 µM	> 60.9	43.4	> 92.6	> 38.7 µM	> 71.6 µM	> 44.7 µM	> 66 µM	> 42	> 66.3	16.5 µM	> 53.2	47.1 µM	> 100	> 100 µM	27.9 µM
O=[P+](O)c1cc2c3ccccc3ccc2c2ccccc12		> 100		> 100 µM		> 100		> 100		> 100 µM		> 100 µM		> 100				> 100	> 100 µM	
Nc1ccc(C(=O)N/C(=C\c2ccc3c(c2)OCO3)c2nc3ccc4c(c3[nH]2)C(=O)c2ccccc2C4=O)cc1		> 100		> 100 µM		72.2		42.4		> 100 µM		> 100 µM		> 100				> 100	71.9 µM	
COc1ccccc1NC(=O)NS(=O)(=O)c1ccccc1		> 100		> 100 µM		> 100		98.2		> 100 µM		> 100 µM		> 100				> 100	> 100 µM	
CC(=O)OC1CC2C(C)(C)C(=O)C=C[C@]2(C)C2CCC3(C)C(=CCC3[C@H](CO)C[C@H](O)C(=O)C(C)(C)O)[C@]12C (some centres undefined)		28.1		34.1 µM		34.1		31.3		> 100 µM		31.5 µM		27.7				33.1	52.3 µM	
C=CCN1C(=O)C/C(=C2/CCC(=O)N2CC=C)C1=O		> 100		> 100 µM		> 100		> 100		> 100 µM		> 100 µM		> 100				> 100	> 100 µM	
c1cc[c]([Sn]([O]c2cccc3cccnc23)([c]2ccccc2)[c]2ccccc2)cc1	0.0311 µM	0.095	0.0236 µM	0.0625 µM	0.015 µM	0.029	0.0154	0.0333	< 0.01 µM	0.0198 µM	0.0184 µM	0.0374 µM	0.0306	0.0761			0.0184 µM	0.0336		< 0.01 µM
CCN1CCN(c2nc(NNC(=O)c3cccc(OC)c3)nc(N3CCN(C(c4ccccc4)c4ccccc4)CC3)n2)CC1			1.96 µM	4.33 µM	1.84 µM	3.58	1.63	3.1	1.61 µM	3.22 µM			1.87	3.6	1.87 µM	3.58				
O=C1/C(=C/c2ccc(Cl)cc2)COc2ccc(Br)cc21		> 100		> 100 µM		> 100		> 100		> 100 µM		> 100 µM		> 100				> 100	> 100 µM	
Cc1ccc(S(=O)(=O)N/N=C/CN2C(=O)c3ccccc3C2=O)cc1		> 100		> 100 µM		> 100				> 100 µM		> 100 µM		> 100				> 100	> 100 µM	
Cc1nc(=O)n2c(c1C(=O)Nc1ccc(Cl)cc1)NCCC2		> 100				> 100		> 100		> 100 µM		> 100 µM		> 100				> 100	> 100 µM	
CC1CC(=O)CC[C@@H]1OCc1ccccc1 (some centres undefined)		> 100		> 100 µM		> 100		> 100		> 100 µM		> 100 µM		> 100				> 100		
COc1ccc(CN[C@H]2CCc3cc(OC)c(OC)c(OC)c3-c3ccc(SC)c(=O)cc32)c(OC)c1OC		0.03	0.0238 µM	0.0413 µM and 0.0657 µM	0.0285 µM	> 100		0.0497	< 0.01 µM	0.0597 µM and 0.133 µM	0.0299 µM	0.0444 µM and 0.103 µM	0.0167	> 100					0.0495 µM	
NC(=O)COc1ccc(Br)cc1Br		> 100				> 100				> 100 µM		> 100 µM		> 100				> 100	> 100 µM	
NS(=O)(=O)c1ccc(N=Nc2cc3ccccc3c(C(=O)O)c2O)cc1		> 100				> 100		> 70.1		> 100 µM		> 95.2 µM		> 100		97		> 100	> 65.6 µM	
COc1ccc2nc(NC(=O)C(=O)C(C#N)c3ccc(CC#N)cc3)sc2c1 (centres undefined)		> 100		> 100 µM		> 100		> 100		> 100 µM		> 100 µM		> 100				> 100	> 100 µM	

Compound	GI50 (HT29 colon)	TGI (HT29 colon) [µM]	GI50 (HCC-2998 colon)	TGI (HCC-2998 colon)	GI50 (786-0 renal)	TGI (786-0 renal) [µM]	GI50 (RXF 393 renal) [µM]	TGI (RXF 393 renal) [µM]	GI50 (HCT-116 colon)	TGI (HCT-116 colon)	GI50 (U251 CNS)	TGI (U251 CNS)	GI50 (SF-295 CNS) [µM]	TGI (SF-295 CNS) [µM]	GI50 (MDA-MB-231 breast)	TGI (MDA-MB-231 breast) [µM]	GI50 (OVCAR-8 ovarian)	TGI (OVCAR-8 ovarian) [µM]	TGI (NCI-H522 lung)	GI50 (NCI-H522 lung)
COc1cc2ccc(C(=O)O)cc2cc1OC		> 100				> 100		> 100		> 100 µM		> 100 µM		> 100				> 100	> 100 µM	
Cc1cccc2c1C(=O)OC2(c1cccc2ccccc12)c1cccc2ccccc12		> 100		> 100 µM		> 100		94.3		> 100 µM		> 100 µM		> 100				> 100	> 100 µM	
CCOc1c(Cc2ccccc2)c(=O)n2c3ccccc3n3c(=O)n(C)c(=O)c1c23		> 100		> 100 µM		> 100		> 100		> 100 µM		> 100 µM		> 100				> 100		
O=C1/C(=C/c2ccccc2)CN(C(=O)Oc2ccccc2)C/C1=C\c1ccccc1		> 100				49.1		31.4		28.7 µM		> 100 µM		34.1				> 100	> 100 µM	
COC(=O)C12CC(NC(=O)c3csc([C@@H](C[C@H](C(C)C)N(C)C(=O)[C@@H](NC(=O)[C@H]4CCCCN4C)C(C)C)OC(C)=O)n3)(C1)C2	0.00177 µM and 0.00333 µM	0.0396	0.00748 µM and 0.00333 µM	> 33.3 µM	0.005 µM and 0.00333 µM	> 33.3			0.00302 µM and 0.00333 µM	> 33.3 µM	0.00429 µM and 0.00333 µM	> 33.3 µM	0.00454		0.00434 µM and 0.00333 µM		0.00429 µM and 0.00333 µM	> 33.3	0.000929 µM and < 0.00333 µM	0.000185 µM and < 0.00333 µM
CCc1cc2c(c3[nH]ccc13)[C@@H](C)C[C@H]2C		43.8		38.3 µM		28.2		28.7		30.1 µM		31.6 µM		35.2				41.1	31.9 µM	
CC(C)N(C(=O)C12C3C4C5C3C1(C(=O)N(C(C)C)C(C)C)C5C42)C(C)C (centres undefined)		> 100		> 100 µM		> 100		> 100		> 57.8 µM		> 100 µM		> 100				> 100	> 100 µM	
CC(=O)[O-].CC(=O)[O-].CC(=O)[O-].CC(=O)[O-].CO.CO.CO.[Rh+2].[Rh+2].c1ccc(-c2ccccn2)nc1	> 100 µM	> 100	> 100 µM	> 100 µM	> 100 µM	> 100	> 100	> 100	> 100 µM	> 100 µM	> 100 µM	> 100 µM	> 100	> 100			> 100 µM	> 100		
CC(C)S(=O)(=O)ON1C(=O)c2ccc([N+](=O)[O-])cc2C1=O		> 100		> 100 µM		> 100		> 100		> 100 µM		> 100 µM		> 100				> 100	> 100 µM	
COC(=O)C([O][Ge]([CH3])([CH3])[CH3])c1ccccc1 (centres undefined)	> 100 µM	> 100	> 100 µM	> 100 µM	> 100 µM	> 100			> 100 µM	> 100 µM	> 100 µM	> 100 µM	> 100	> 100			> 100 µM	> 100	> 100 µM	> 100 µM
Cc1cccc(Cc2cnc(NC(=O)/C=C/c3ccco3)s2)c1	0.0373 µM	> 100	0.135 µM	> 100 µM	0.0598 µM	> 100	0.0221	0.0643	0.0425 µM	> 100 µM	0.0396 µM	> 100 µM	0.0437	> 100	0.0771 µM	> 73.1	0.0535 µM	> 100		
CCCN(CCC)c1c([N+](=O)[O-])cc(C(N)=O)cc1[N+](=O)[O-]		> 100		> 100 µM		> 100				> 100 µM		> 100 µM		> 100				> 100	67.3 µM	
CC1(C)CC(=O)C=C(NC(=O)c2ccccc2)C1		> 100		> 100 µM		> 100		> 100		> 100 µM		> 100 µM		> 100				> 100	> 100 µM	
CCC[CH2][Sn]1([CH2]CCC)[O]N=Cc2ccccc2[O]1	1.75 µM	3.36	1.32 µM	2.83 µM	0.608 µM	1.89	0.224	1.05	1.43 µM	2.73 µM	0.387 µM	1.41 µM	0.93	2.13			0.89 µM	2.12	0.229 µM	0.102 µM
S=C1NC2=C(CCOc3c2ccc2ccccc32)C(c2ccc(Cl)cc2)N1 (centres undefined)	33.5 µM	> 100			50.5 µM	> 100	39	> 100			35.5 µM	> 100 µM	31.9	> 100	10.6 µM	67.6	44.7 µM	> 100	> 100 µM	25.1 µM
CC1CCCc2c(CC3CC(=O)NC(=O)C3)nc(N)nc21 (centres undefined)		> 100		> 100 µM		> 100		> 100		> 100 µM		> 100 µM		> 100		> 100		> 100		
c1ccc2c(Nc3ccc4c(c3)OCO4)c3ccoc3nc2c1			12.5 µM	29.6 µM	17.3 µM	40.3	3.53	23.1	14.7 µM	37.3 µM	17.6 µM	41.3 µM	14.7	34.3			12.6 µM	46.4	> 100 µM	27.2 µM
O=C1CCC(=O)C(C(=O)CCC(=O)Nc2ccc(Cl)cc2)C1 (centres undefined)		> 100		> 100 µM		> 100				> 100 µM		> 100 µM		> 100				> 100	> 100 µM	
O=C1NC(=Nc2ccccc2Cl)SC1C(=O)Nc1ccc([N+](=O)[O-])cc1[N+](=O)[O-] (centres undefined)		> 100		> 100 µM		> 100		> 100		> 100 µM		> 100 µM		> 100				> 100	> 100 µM	
